In US20120058206A1, “ANTIALLERGIC MARINE BIOPOLYMERS” (MARINOMED BIOTECHNOLOGIE GMBH, priority 2008, published 2012):

System: CFTL12 Mast cells stimulated with IgE/antigen complex (TNF-alpha release)
Assay: Inhibition of TNF-alpha production from IgE/antigen stimulated mast cells
Assay type: cell-based, mouse
Settings: 60 minutes before IgE/antigen stimulation; for inhibition of TNF-alpha release: carrageenan 200 μg/ml, 6 hours at 37° C., supernatant ELISA (FIG. 1)
Description: TNF-alpha is a mediator that is central in an inflammatory process as observed during infections, and autoimmune diseases. It is released by white blood cells, mast cells, endothelium and several other tissues in the course of damage.
CFTL12 Mast cells were incubated with iota or kappa carrageenan at a concentration of 200 μg/ml. 60 minutes later the cells were stimulated with an IgE/antigen complex. Cells were incubated at 37° C. for 6 hours and TNF-alpha in the supernatant was determined by a commercial mouse TNF-alpha ELISA (Bender-Med-Systems). Error bars indicate the standard deviation between 4 independent wells. 1=non-stimulated; 2=IgE/antigen stimulation; 3=lambda carrageenan pretretament+subsequent IgE/antigen stimulation; 4=kappa carrageenan pretreatment++subsequent IgE/antigen stimulation, 5=iota-carrageenan pretreatment+subsequent IgE/antigen stimulation. The Y-axis mirrors the concentration of TNF-alpha in pg/ml.
Mast cells were incubated with iota-carrageenan at varying concentrations. 60 minutes later the cells were stimulated with IgE/antigen complex. Cells were incubated at 37° C. for 6 hours and TNF-alpha in the supernatant was determined by a commercial mouse TNF-alpha ELISA (Bender-Med-Systems). Error bars indicate the standard deviation between 4 independent wells. 1=non-stimulated; 2=IgE/antigen stimulated, 3=iota-carrageenan 200 μg/ml, 4=iota-carrageenan 66 μg/ml, 5=iota-carrageenan 6.6 μg/ml, 6=iota-carrageenan 0.6 μg/ml. The Y-axis represents the concentration of TNF-alpha in pg/ml.

iota-carrageenan
dose dependence of inhibition of TNF-alpha production (200, 66, 6.6, 0.6 μg/ml, 6 hours (FIG. 2)): Dose-Dependent Inhibition
inhibition of TNF-alpha release: inhibit TNF-alpha release

kappa carrageenan
inhibition of TNF-alpha release: inhibit TNF-alpha release

lambda carrageenan [reference compound]
inhibition of TNF-alpha release: not
